Experiment: Sensory evaluation of Vermont drink containing the agent
Conditions: ten panels
Description: Water was added to a mixture of 10 g of apple-cider vinegar (acetic acid: 4.8%), 3 g of honey, 7 g of fructose-glucose liquid sugar mixed with sugar, 0.02 g of citric acid, 0.002 g of trisodium citrate, and 0.1 g of a Vermont flavor (manufactured by T. Hasegawa Co., Ltd.) to give a total amount of 100 mL. To the resulting mixture was added (Z,Z)-4,7-tridecadienal as the acid taste and/or acid smell-reducing agent of the present invention in concentrations shown in the following Table 1 to give Vermont drinks containing the agent.
Sensory evaluation of each drink was carried out by ten panels. […] The piercing aroma characteristic to aldehydes is a characteristic aroma common to every aldehyde and refers to an irritant off-smell giving an image of deteriorated oils and fats, soap, metals, Houttuynia cordata, etc. The judgment of smell was performed by comparing the effects at different concentrations of the acid taste and/or acid smell-reducing agent, and a concentration giving the highest acid taste/acid smell quality was selected. […]

CCCCC/C=C/C/C=C/C=C/C=O [(E,E,E)-2,4,7-tridecatrienal]
A: number of panels, acid taste/acid smell extreme and cause irritation (0.005 ppt): 10
B: number of panels, acid taste/acid smell slightly strong and slightly cause irritation (0.005 ppt): 0
C: number of panels, acid taste/acid smell slightly unpleasant (0.005 ppt): 0
Flavor judgment: number of panels who judged acid taste/acid smell quality the highest (0.005 ppt): 0
N: number of panels, irritation of acid reduced to give a mild acid taste (0.005 ppt): 0
X: number of panels, acid taste reduced but piercing odor characteristic to aldehydes unpleasant (0.005 ppt): 0
A: number of panels, acid taste/acid smell extreme and cause irritation (0.02 ppt): 10
B: number of panels, acid taste/acid smell slightly strong and slightly cause irritation (0.02 ppt): 0
C: number of panels, acid taste/acid smell slightly unpleasant (0.02 ppt): 0
Flavor judgment: number of panels who judged acid taste/acid smell quality the highest (0.02 ppt): 0
N: number of panels, irritation of acid reduced to give a mild acid taste (0.02 ppt): 0
X: number of panels, acid taste reduced but piercing odor characteristic to aldehydes unpleasant (0.02 ppt): 0
A: number of panels, acid taste/acid smell extreme and cause irritation (0.1 ppt): 10
B: number of panels, acid taste/acid smell slightly strong and slightly cause irritation (0.1 ppt): 0
C: number of panels, acid taste/acid smell slightly unpleasant (0.1 ppt): 0
Flavor judgment: number of panels who judged acid taste/acid smell quality the highest (0.1 ppt): 0
N: number of panels, irritation of acid reduced to give a mild acid taste (0.1 ppt): 0
X: number of panels, acid taste reduced but piercing odor characteristic to aldehydes unpleasant (0.1 ppt): 0
A: number of panels, acid taste/acid smell extreme and cause irritation (0.2 ppt): 9
B: number of panels, acid taste/acid smell slightly strong and slightly cause irritation (0.2 ppt): 1
C: number of panels, acid taste/acid smell slightly unpleasant (0.2 ppt): 0
Flavor judgment: number of panels who judged acid taste/acid smell quality the highest (0.2 ppt): 0
N: number of panels, irritation of acid reduced to give a mild acid taste (0.2 ppt): 0
X: number of panels, acid taste reduced but piercing odor characteristic to aldehydes unpleasant (0.2 ppt): 0
A: number of panels, acid taste/acid smell extreme and cause irritation (0.5 ppt): 7
B: number of panels, acid taste/acid smell slightly strong and slightly cause irritation (0.5 ppt): 1
C: number of panels, acid taste/acid smell slightly unpleasant (0.5 ppt): 2
Flavor judgment: number of panels who judged acid taste/acid smell quality the highest (0.5 ppt): 0
N: number of panels, irritation of acid reduced to give a mild acid taste (0.5 ppt): 0
X: number of panels, acid taste reduced but piercing odor characteristic to aldehydes unpleasant (0.5 ppt): 0
A: number of panels, acid taste/acid smell extreme and cause irritation (1 ppb): 0
B: number of panels, acid taste/acid smell slightly strong and slightly cause irritation (1 ppb): 0
C: number of panels, acid taste/acid smell slightly unpleasant (1 ppb): 2
Flavor judgment: number of panels who judged acid taste/acid smell quality the highest (1 ppb): 0
N: number of panels, irritation of acid reduced to give a mild acid taste (1 ppb): 4
X: number of panels, acid taste reduced but piercing odor characteristic to aldehydes unpleasant (1 ppb): 4
A: number of panels, acid taste/acid smell extreme and cause irritation (1 ppt): 0
B: number of panels, acid taste/acid smell slightly strong and slightly cause irritation (1 ppt): 7
C: number of panels, acid taste/acid smell slightly unpleasant (1 ppt): 3
Flavor judgment: number of panels who judged acid taste/acid smell quality the highest (1 ppt): 0
N: number of panels, irritation of acid reduced to give a mild acid taste (1 ppt): 1
X: number of panels, acid taste reduced but piercing odor characteristic to aldehydes unpleasant (1 ppt): 0
A: number of panels, acid taste/acid smell extreme and cause irritation (5 ppt): 0
B: number of panels, acid taste/acid smell slightly strong and slightly cause irritation (5 ppt): 2
C: number of panels, acid taste/acid smell slightly unpleasant (5 ppt): 3
Flavor judgment: number of panels who judged acid taste/acid smell quality the highest (5 ppt): 2
N: number of panels, irritation of acid reduced to give a mild acid taste (5 ppt): 5
X: number of panels, acid taste reduced but piercing odor characteristic to aldehydes unpleasant (5 ppt): 0
A: number of panels, acid taste/acid smell extreme and cause irritation (10 ppb): 0
B: number of panels, acid taste/acid smell slightly strong and slightly cause irritation (10 ppb): 0
C: number of panels, acid taste/acid smell slightly unpleasant (10 ppb): 2
Flavor judgment: number of panels who judged acid taste/acid smell quality the highest (10 ppb): 0
N: number of panels, irritation of acid reduced to give a mild acid taste (10 ppb): 2
X: number of panels, acid taste reduced but piercing odor characteristic to aldehydes unpleasant (10 ppb): 6
A: number of panels, acid taste/acid smell extreme and cause irritation (20 ppt): 0
B: number of panels, acid taste/acid smell slightly strong and slightly cause irritation (20 ppt): 1
C: number of panels, acid taste/acid smell slightly unpleasant (20 ppt): 3
Flavor judgment: number of panels who judged acid taste/acid smell quality the highest (20 ppt): 5
N: number of panels, irritation of acid reduced to give a mild acid taste (20 ppt): 6
X: number of panels, acid taste reduced but piercing odor characteristic to aldehydes unpleasant (20 ppt): 0
A: number of panels, acid taste/acid smell extreme and cause irritation (50 ppb): 0
B: number of panels, acid taste/acid smell slightly strong and slightly cause irritation (50 ppb): 0
C: number of panels, acid taste/acid smell slightly unpleasant (50 ppb): 0
Flavor judgment: number of panels who judged acid taste/acid smell quality the highest (50 ppb): 0
N: number of panels, irritation of acid reduced to give a mild acid taste (50 ppb): 3
X: number of panels, acid taste reduced but piercing odor characteristic to aldehydes unpleasant (50 ppb): 7
A: number of panels, acid taste/acid smell extreme and cause irritation (100 ppt): 0
B: number of panels, acid taste/acid smell slightly strong and slightly cause irritation (100 ppt): 2
C: number of panels, acid taste/acid smell slightly unpleasant (100 ppt): 2
Flavor judgment: number of panels who judged acid taste/acid smell quality the highest (100 ppt): 3
N: number of panels, irritation of acid reduced to give a mild acid taste (100 ppt): 6
X: number of panels, acid taste reduced but piercing odor characteristic to aldehydes unpleasant (100 ppt): 0
A: number of panels, acid taste/acid smell extreme and cause irritation (500 ppt): 0
B: number of panels, acid taste/acid smell slightly strong and slightly cause irritation (500 ppt): 0
C: number of panels, acid taste/acid smell slightly unpleasant (500 ppt): 4
Flavor judgment: number of panels who judged acid taste/acid smell quality the highest (500 ppt): 0
N: number of panels, irritation of acid reduced to give a mild acid taste (500 ppt): 4
X: number of panels, acid taste reduced but piercing odor characteristic to aldehydes unpleasant (500 ppt): 2
